Measured values taken from US7629341B2, “Human ADAM-10 inhibitors” (Symphony Evolution, Inc., priority 2003, dated 2009).

Legend:
ADAM-10 = molecular target: T1, ADAM-10 (UniProt O14672); assay: ADAM-10 enzyme assay, cleavage of a fluorogenic 10-residue peptide; assay type: biochemical, mouse or human (mADAM-10 or hADAM-10); conditions: in vitro;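 note: mouse or human ADAM-10 at 5 nM active enzyme, pH 8.0 HEPES buffer with CaCl2 and NP-40, compounds titrated 100 µM down to 0.5 nM, fluorescence read after 16 h at room temperature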
T1 sequence (O14672 1-748): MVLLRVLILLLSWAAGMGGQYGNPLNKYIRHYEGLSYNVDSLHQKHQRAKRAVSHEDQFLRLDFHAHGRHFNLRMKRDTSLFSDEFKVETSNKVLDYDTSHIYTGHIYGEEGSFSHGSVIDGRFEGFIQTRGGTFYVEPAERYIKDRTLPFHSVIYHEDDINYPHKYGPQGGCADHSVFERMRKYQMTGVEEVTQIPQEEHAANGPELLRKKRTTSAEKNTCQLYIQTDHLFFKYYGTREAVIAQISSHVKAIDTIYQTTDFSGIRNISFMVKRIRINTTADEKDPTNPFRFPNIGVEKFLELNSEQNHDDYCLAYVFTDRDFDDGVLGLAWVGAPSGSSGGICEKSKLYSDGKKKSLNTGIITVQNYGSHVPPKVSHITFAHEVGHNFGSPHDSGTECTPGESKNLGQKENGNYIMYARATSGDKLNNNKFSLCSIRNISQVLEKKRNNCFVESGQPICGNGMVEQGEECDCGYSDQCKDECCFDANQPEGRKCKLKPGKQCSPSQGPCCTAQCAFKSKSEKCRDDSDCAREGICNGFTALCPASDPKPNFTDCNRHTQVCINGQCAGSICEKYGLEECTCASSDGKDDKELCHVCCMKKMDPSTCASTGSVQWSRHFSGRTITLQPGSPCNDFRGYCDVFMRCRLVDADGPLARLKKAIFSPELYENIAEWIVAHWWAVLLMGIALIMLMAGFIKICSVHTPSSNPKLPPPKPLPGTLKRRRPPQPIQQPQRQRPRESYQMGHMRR
Procedure: mADAM-10 or hADAM-10 activity was measured as the ability to cleave a 10-residue peptide (DABCYL-Leu-Leu-Ala-Gln-Lys-*-LeuArg-Ser-Ser-Arg-EDANS). […] Enzyme was diluted to a final active concentration of 5 nM in Buffer A (50 mM HEPES 8.0, 100 mM NaCl, 1 mM CaCl2 and 0.01% NP-40). Serial dilutions for compounds were performed ranging from 100 μM to 0.5 nM using a Beckman Biomek 2000 in polypropylene plates (Greiner). […] This reaction was incubated for 16 hr at RT and fluorescence was read using identical conditions.

[1] = molecular target: TACE (TNF-alpha converting enzyme, ADAM-17) (Homo sapiens, UniProt P78536); assay: In vitro metalloprotease inhibition, TACE; assay type: biochemical
TACE (TNF-alpha converting enzyme, ADAM-17), sequence (P78536 215-824): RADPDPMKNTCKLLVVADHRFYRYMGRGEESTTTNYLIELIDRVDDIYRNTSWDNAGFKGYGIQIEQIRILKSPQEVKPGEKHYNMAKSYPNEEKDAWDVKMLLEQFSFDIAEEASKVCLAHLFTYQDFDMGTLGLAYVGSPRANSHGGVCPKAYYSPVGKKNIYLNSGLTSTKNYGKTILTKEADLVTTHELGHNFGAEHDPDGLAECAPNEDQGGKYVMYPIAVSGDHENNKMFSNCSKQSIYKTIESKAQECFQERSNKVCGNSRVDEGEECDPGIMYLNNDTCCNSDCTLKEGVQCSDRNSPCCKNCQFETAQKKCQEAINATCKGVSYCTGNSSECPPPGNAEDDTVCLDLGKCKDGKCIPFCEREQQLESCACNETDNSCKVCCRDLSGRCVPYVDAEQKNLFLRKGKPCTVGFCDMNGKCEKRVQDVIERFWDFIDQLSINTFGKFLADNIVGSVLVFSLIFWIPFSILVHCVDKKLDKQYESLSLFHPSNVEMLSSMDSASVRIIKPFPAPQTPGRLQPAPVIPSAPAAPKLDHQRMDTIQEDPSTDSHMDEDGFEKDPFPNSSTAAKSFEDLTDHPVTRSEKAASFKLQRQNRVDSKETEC
From the text: (§1) Blank cells indicate lack of data only.

[2] = molecular target: T2, MMP-1 (Fibroblast collagenase) (Homo sapiens, UniProt P03956); assay: In vitro metalloprotease inhibition, MMP-1; assay type: biochemical
T2 sequence (P03956 100-469): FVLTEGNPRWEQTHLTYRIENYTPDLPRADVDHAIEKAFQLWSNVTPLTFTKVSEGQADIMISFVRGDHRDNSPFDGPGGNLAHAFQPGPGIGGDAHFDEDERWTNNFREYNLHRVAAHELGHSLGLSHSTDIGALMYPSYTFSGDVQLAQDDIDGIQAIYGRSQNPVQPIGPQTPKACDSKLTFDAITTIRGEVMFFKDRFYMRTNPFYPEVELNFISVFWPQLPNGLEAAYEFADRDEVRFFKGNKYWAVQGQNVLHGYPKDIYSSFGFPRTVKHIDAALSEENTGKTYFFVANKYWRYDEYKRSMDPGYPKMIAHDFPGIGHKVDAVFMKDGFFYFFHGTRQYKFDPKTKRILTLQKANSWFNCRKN
From the text: as §1

[3] = molecular target: T3, MMP-2 (72 kDa gelatinase, gelatinase A) (Homo sapiens, UniProt P08253); assay: In vitro metalloprotease inhibition, MMP-2; assay type: biochemical
T3 sequence (P08253 110-660): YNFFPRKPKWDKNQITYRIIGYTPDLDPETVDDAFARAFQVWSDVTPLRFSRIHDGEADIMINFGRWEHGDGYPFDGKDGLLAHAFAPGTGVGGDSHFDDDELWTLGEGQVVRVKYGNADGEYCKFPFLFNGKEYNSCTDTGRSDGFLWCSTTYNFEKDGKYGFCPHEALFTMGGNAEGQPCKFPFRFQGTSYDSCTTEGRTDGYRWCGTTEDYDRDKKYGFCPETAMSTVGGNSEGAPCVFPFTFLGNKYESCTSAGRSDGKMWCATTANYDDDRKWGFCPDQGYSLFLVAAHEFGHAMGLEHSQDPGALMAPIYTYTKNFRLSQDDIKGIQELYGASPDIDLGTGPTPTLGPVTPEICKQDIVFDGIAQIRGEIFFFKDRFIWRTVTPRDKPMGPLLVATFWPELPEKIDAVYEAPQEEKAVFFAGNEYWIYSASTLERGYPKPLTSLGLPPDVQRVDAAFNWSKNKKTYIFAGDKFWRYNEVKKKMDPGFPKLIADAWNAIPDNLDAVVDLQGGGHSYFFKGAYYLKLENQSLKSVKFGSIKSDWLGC

MMP-3 (Stromelysin-1) = MMP-3 (Stromelysin-1) (Homo sapiens, UniProt P08254); assay: In vitro metalloprotease inhibition, MMP-3; assay type: biochemical
MMP-3 (Stromelysin-1), sequence (P08254 100-477, species assumed): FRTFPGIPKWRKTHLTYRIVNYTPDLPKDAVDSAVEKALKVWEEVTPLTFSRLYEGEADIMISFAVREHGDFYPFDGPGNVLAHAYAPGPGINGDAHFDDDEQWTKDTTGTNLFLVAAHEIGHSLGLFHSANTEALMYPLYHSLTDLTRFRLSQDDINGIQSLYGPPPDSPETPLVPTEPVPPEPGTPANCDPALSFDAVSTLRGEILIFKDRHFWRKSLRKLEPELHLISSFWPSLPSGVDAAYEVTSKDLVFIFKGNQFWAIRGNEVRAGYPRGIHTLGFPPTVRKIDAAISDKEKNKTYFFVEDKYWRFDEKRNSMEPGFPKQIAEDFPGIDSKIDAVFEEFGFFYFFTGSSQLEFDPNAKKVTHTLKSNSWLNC
From the text: as §1

MMP-13 (collagenase-3) = MMP-13 (collagenase-3) (Homo sapiens, UniProt P45452); assay: In vitro metalloprotease inhibition, MMP-13; assay type: biochemical
[4] = molecular target: MMP-8 (Neutrophil collagenase) (Homo sapiens, UniProt P22894); assay: In vitro metalloprotease inhibition, MMP-8; assay type: biochemical
MMP-8 (Neutrophil collagenase), sequence (P22894 101-467, species assumed): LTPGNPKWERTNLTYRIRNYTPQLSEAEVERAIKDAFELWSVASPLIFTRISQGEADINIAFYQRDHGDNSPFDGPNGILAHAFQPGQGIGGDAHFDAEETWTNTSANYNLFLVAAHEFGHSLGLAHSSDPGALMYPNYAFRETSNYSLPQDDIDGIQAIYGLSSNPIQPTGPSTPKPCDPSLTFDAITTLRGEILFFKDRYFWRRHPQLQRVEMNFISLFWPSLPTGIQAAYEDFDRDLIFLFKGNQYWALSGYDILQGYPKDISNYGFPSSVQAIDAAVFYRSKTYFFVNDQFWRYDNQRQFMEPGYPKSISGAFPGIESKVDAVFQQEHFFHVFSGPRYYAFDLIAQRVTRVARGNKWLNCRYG

[5] = molecular target: MMP-9 (92 kDa gelatinase, gelatinase B) (Homo sapiens, UniProt P14780); assay: In vitro metalloprotease inhibition, MMP-9; assay type: biochemical
MMP-9 (92 kDa gelatinase, gelatinase B), sequence (P14780 94-707, species assumed): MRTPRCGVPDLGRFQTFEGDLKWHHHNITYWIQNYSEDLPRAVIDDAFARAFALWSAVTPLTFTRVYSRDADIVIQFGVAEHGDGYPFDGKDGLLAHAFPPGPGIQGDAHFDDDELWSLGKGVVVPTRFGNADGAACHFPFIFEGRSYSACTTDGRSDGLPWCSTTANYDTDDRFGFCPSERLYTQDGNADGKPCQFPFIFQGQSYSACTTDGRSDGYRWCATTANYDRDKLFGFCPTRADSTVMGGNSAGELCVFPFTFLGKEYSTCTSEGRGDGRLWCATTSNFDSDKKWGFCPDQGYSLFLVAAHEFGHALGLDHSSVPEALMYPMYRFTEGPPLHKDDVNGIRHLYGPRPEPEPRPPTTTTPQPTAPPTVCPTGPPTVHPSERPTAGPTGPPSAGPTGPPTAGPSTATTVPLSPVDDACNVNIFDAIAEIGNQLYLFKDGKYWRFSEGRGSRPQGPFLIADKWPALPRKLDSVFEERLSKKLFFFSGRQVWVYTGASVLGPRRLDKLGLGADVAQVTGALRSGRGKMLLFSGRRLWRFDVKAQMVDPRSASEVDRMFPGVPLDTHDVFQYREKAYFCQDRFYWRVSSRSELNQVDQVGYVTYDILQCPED

SMILES	IC50 (ADAM-10)	IC50 [1]	IC50 [2]	IC50 [3]	IC50 (MMP-3 (Stromelysin-1))	IC50 (MMP-13 (collagenase-3))	IC50 [4]	IC50 [5]
O=C(NO)[C@H]1CN(C(=O)c2cccnc2)CCN1S(=O)(=O)c1cc(F)c(Oc2ccc(Cl)cc2)c(F)c1 [Entry 59]	< 50 nM	50 to 1000 nM	1000 to 20000 nM	< 50 nM	50 to 1000 nM	< 50 nM	–	–
COCCOC(=O)N1CCN(S(=O)(=O)c2cc(F)c(Oc3ccc(Cl)cc3)c(F)c2)[C@@H](C(=O)NO)C1 [Entry 15]	–	50 to 1000 nM	1000 to 20000 nM	–	50 to 1000 nM	–	–	–
O=C(NO)[C@H]1CN(C(=O)C(=O)N2CCOCC2)CCN1S(=O)(=O)c1cc(F)c(Oc2ccc(Cl)cc2)c(F)c1 [Entry 31]	< 50 nM	50 to 1000 nM	1000 to 20000 nM	< 50 nM	50 to 1000 nM	< 50 nM	–	–
O=C(NO)[C@H]1CN(S(=O)(=O)c2cccnc2O)CCN1S(=O)(=O)c1cc(F)c(Oc2ccc(Cl)cc2)c(F)c1 [Entry 45]	< 50 nM	50 to 1000 nM	1000 to 20000 nM	< 50 nM	50 to 1000 nM	< 50 nM	–	–
O=C(NO)[C@H]1CN(S(=O)(=O)Cc2ccncc2)CCN1S(=O)(=O)c1cc(F)c(Oc2ccc(Cl)cc2)c(F)c1 [Entry 34]	< 50 nM	< 50 nM	1000 to 20000 nM	< 50 nM	50 to 1000 nM	< 50 nM	–	–
O=C(NO)[C@H]1CN(S(=O)(=O)NC(=O)N2CCCCC2)CCN1S(=O)(=O)c1cc(F)c(Oc2ccc(Cl)cc2)c(F)c1 [Entry 37]	< 50 nM	50 to 1000 nM	1000 to 20000 nM	< 50 nM	< 50 nM	< 50 nM	–	–
CN(C)CCS(=O)(=O)N1CCN(S(=O)(=O)c2cc(F)c(Oc3ccc(Cl)cc3)c(F)c2)[C@@H](C(=O)NO)C1 [Entry 54]	< 50 nM	< 50 nM	50 to 1000 nM	< 50 nM	< 50 nM	< 50 nM	–	–
O=C(NO)[C@H]1CN(S(=O)(=O)NC(=O)N2CCOCC2)CCN1S(=O)(=O)c1cc(F)c(Oc2ccc(Cl)cc2)c(F)c1 [Entry 38]	< 50 nM	50 to 1000 nM	1000 to 20000 nM	< 50 nM	< 50 nM	< 50 nM	–	–
O=C(NO)[C@H]1CN(C(=O)N2CCOCC2)CCN1S(=O)(=O)c1cc(F)c(Oc2ccc(Cl)cc2)c(F)c1 [Entry 30]	< 50 nM	50 to 1000 nM	1000 to 20000 nM	< 50 nM	50 to 1000 nM	< 50 nM	< 50 nM	50 to 1000 nM
